# “And” between values parts separate entries of the source, which are not always exact repeats. Identical values can stand only once.
# Experiments:
# CEM/dCK- [1] = assay: MTT or WST-1 assay at 72 hr (24 hr drug exposure, wash, 48 hr); type: cell-based
# Protocol: (§1) Exposition of 24hr to drug, washed, and incubated for another 48hr (total of 72hr assay)
# CCRF-CEM [2] = assay: as above; type: cell-based
# Protocol: as §1
# MCF-7 [3] = assay: MTT assay at 72 hr (24 hr drug exposure, wash, 48 hr); type: cell-based
# Protocol: as §1
# SF-268 [4] = assay: as above; type: cell-based
# Protocol: as §1
# H-460 [5] = assay: as above; type: cell-based
# Protocol: as §1
# MCF-7 [6] = assay: 3H-TdR incorporation at 72 hr (24 hr drug exposure, wash, 48 hr); type: cell-based, Human; settings: Homo sapiens, MCF7, read-out: IC50 in μM (3H-TdR incorporation at 72 hr) MCF-7 24 h, MCF-7 Human Breast Carcinoma, 72 hr assay
# Protocol: (§2) Exposition of 24 hr to drug, wash, incubated for another 48 hr (total of 72 hr assay)
# (§3) (3H-Thymidine Incorporation Assay)
# SF-268 [7] = assay: as above; type: cell-based, Human; settings: Homo sapiens, SF-268, read-out: IC50 in μM (3H-TdR incorporation at 72 hr) SF-268 24 h, SF-268 Human Central Nervous System Tumor; 24 h drug exposure, 72 hr assay
# Protocol: as §2, §3
# H-460 [8] = assay: as above; type: cell-based, Human; settings: Homo sapiens, NCI-H460, read-out: IC50 in μM (3H-TdR incorporation at 72 hr) H-460 24 h, H-460 Human Lung Carcinoma, 72 hr assay
# Protocol: as §2, §3
# CEM/dCK- [9] = assay: as above; type: cell-based; settings: for IC50: Homo sapiens, CCRF-CEM, read-out: IC50 in μM (3H-TdR incorporation at 72 hr) CEM/dCK- 24 h, CCRF-CEM deoxycytidine kinase-deficient, 24 h drug exposure, 72 hr assay; for Factor* (Resistance Factor = Ratio of dCK- on Wild-type CCRF-CEM): ratio of IC50 CEM/dCK- to IC50 CCRF-CEM
# Protocol: as §2, §3
# CCRF-CEM [10] = assay: as above; type: cell-based; settings: read-out: IC50 in μM (3H-TdR incorporation at 72 hr) CCRF-CEM 24 h, CCRF-CEM T-cell Leukemia, 72 hr assay
# Protocol: as §2, §3
# [11] = CEM/dCK- versus CCRF-CEM, single experiment
# [12] = read-out: IC50 CEM/dCK- 24 h, MMT or WST-1 at 72 hr, 24 h exposure, single experiment
# [13] = Homo sapiens, CCRF-CEM, read-out: IC50 CCRF-CEM 24 h, MMT or WST-1 at 72 hr, 24 h exposure, single experiment
# [14] = Homo sapiens, MCF7, read-out: IC50 MCF-7 24 h, MTT at 72 hr, 24 h exposure, single experiment
# [15] = Homo sapiens, SF-268, read-out: IC50 SF-268 24 h, MTT at 72 hr, 24 h exposure, single experiment
# [16] = Homo sapiens, NCI-H460, read-out: IC50 H-460 24 h, MTT at 72 hr, 24 h exposure, single experiment
# [17] = read-out: IC50 CEM/dCK- 24 h; MMT or WST-1 at 72 hr, 24 h exposure, single experiment
# [18] = read-out: IC50 CCRF-CEM 24 h, MMT or WST-1 at 72 hr, 24 h exposure, single experiment
# [19] = read-out: IC50 MCF-7 24 h, MTT at 72 hr, 24 h exposure, single experiment
# [20] = read-out: IC50 SF-268 24 h, MTT at 72 hr, 24 h exposure, single experiment
# [21] = read-out: IC50 H-460 24 h, MTT at 72 hr, 24 h exposure, single experiment
SMILES,Resistance Factor* (CEM/dCK- [1]; [11]),IC50 (CEM/dCK- [1]; [12]),IC50 (CCRF-CEM [2]; [13]),IC50 (MCF-7 [3]; [14]),IC50 (SF-268 [4]; [15]),IC50 (H-460 [5]; [16]),IC50 (MCF-7 [6]),IC50 (SF-268 [7]),IC50 (H-460 [8]),IC50 (CEM/dCK- [1]; [17]),IC50 (CCRF-CEM [2]; [18]),IC50 (CEM/dCK- [9]),Factor* (Resistance Factor = Ratio of dCK- on Wild-type CCRF-CEM) (CEM/dCK- [9]),"IC50 (CCRF-CEM [10]; Homo sapiens, CCRF-CEM)",IC50 (MCF-7 [3]; [19]),IC50 (SF-268 [4]; [20]),IC50 (CCRF-CEM [10]),IC50 (H-460 [5]; [21])
"CC(C)C(C(=O)OC[C@H]1OC[C@@H](n2ccc(N)nc2=O)O1)c1ccccc1 (mixture of isomers) [Compound 262, 3-METHYL-2-PHENYL- BUTYRIC ACID 4-(4- AMINO-2-OXO-2H- PYRIMIDIN-1-YL)- [1,3]DIOXOLAN-2- YLMETHYL ESTER]",>114,> 100 µM,0.88 µM,16 µM,> 100 µM,0.9 µM,,,,,,,,,,,,
"CCCCC(C)(C)C(=O)OC[C@H]1OC[C@@H](n2ccc(N)nc2=O)O1.Cl (stereo in doubt) [Compound 107, 2,2-DIMETHYLHEXANOIC ACID 4-(4-AMINO-2-OXO- 2H-PYRIMIDIN-1-YL)-1,3- DIOXOLAN-2-YLMETHYL ESTER HYDROCHLORIDE]",2.042,49 µM,0.024 µM,0.25 µM,3.4 µM,0.27 µM,,,,,,,,,,,,
"COc1ccc(C(OC[C@H]2OC[C@@H](n3ccc(N)nc3=O)O2)(c2ccc(OC)cc2)c2ccc(OC)cc2)cc1 [Compound 185, 4-AMINO-1-{2-[TRIS-(4- METHOXY-PHENYL)- METHOXYMETHYL]- [1,3]DIOXOLAN-4-YL}-1H- PYRIMIDIN-2-ONE]",67,,,1.4 µM,,,0.064 µM,0.054 µM,0.059 µM,12 µM,0.18 µM,17 µM,258,66 nM,2.3 µM,,,
"CCCCC[C@]12CC[C@](C(=O)Nc3ccn([C@@H]4CO[C@H](CO)O4)c(=O)n3)(CC1)CC2 [Compound 210, 4-Pentyl-Bicyclo[2.2.2]Octane-1-Carboxylic Acid [1-(2-Hydroxymethyl-[1,3]Dioxolan-4-Yl)-2-Oxo-1,2-Dihydro-Pyrimidin-4-Yl]-Amide]",,,,,≥ 100 µM,,0.005 µM,0.26 µM,0.0026 µM,,,> 100 µM,,,,> 100 µM and 51 µM,,
"CCCCC[C@]12CC[C@](C(=O)OC[C@H]3OC[C@@H](n4ccc(N)nc4=O)O3)(CC1)CC2 [Compound 211, 4-PENTYL- BICYCLO[2.2.2]OCTANE-1- CARBOXYLIC ACID 4-(4- AMINO-2-OXO-2H- PYRIMIDIN-1-YL)- [1,3]DIOXOLAN-2-YL METHYL ESTER]",,,,,,,,,,,,,,0.027 nM,,0.034 µM,0.053 nM,
"Nc1ccn([C@@H]2CO[C@H](COC(=O)C3(c4ccccc4)CC3)O2)c(=O)n1 [Compound 223, 1-PHENYL- CYCLOPROPANECARBOXYLIC ACID 4-(4-AMINO-2-OXO- 2H-PYRIMIDIN-1-YL)- [1,3]DIOXOLAN-2-YL METHYL ESTER]",,> 100 µM,,1.7 µM,,,0.15 µM,0.25 µM,0.035 µM,,,> 100 µM,>1613,62 nM,2.1 µM and 1.4 µM,,,
"CC(CCCCCCc1ccccc1)C(=O)Nc1ccn([C@@H]2CO[C@H](CO)O2)c(=O)n1 (stereo partly drawn) [Compound 247, 2-Methyl-8-phenyl-octanoic acid [1-(2-hydroxymethyl-[1,3]dioxolan-4-yl)-2-oxo-1,2-dihydro-pyrimidin-4-yl]-amide]",,61 µM,,,,0.39 µM,0.00078 µM,0.13 µM,0.13 µM,49 µM,,15 µM,150,100 nM,,,,0.54 µM and 0.46 µM
"CC(C)C[C@H](N)C(=O)Nc1ccn([C@@H]2CO[C@H](CO)O2)c(=O)n1 [Compound 257, 2-AMINO-4-METHYL- PENTANOIC ACID [1-(2- HYDROXYMETHYL- [1,3]DIOXOLAN-4-YL)-2- OXO-1,2-DIHYDRO- PYRIMIDIN-4-YL]-AMIDE]",,> 100 µM,4.1 µM,36 µM,> 100 µM,,5 µM,1.6 µM,9.7 µM,,5.4 µM,> 100 µM,>24,4200 nM,21 µM,,,
"CC(C)C[C@H](NC(=O)[C@H](C)NC(=O)OC(C)(C)C)C(=O)Nc1ccn([C@@H]2CO[C@H](CO)O2)c(=O)n1 [Compound 263, (1-{1-[1-(2- HYDROXYMETHYL- [1,3]DIOXOLAN-4-YL)-2- OXO-1,2-DIHYDRO- PYRIMIDIN-4- YLCARBANOYL]-3-METHYL- BUTYLCARBAMOYL}-ETHYL)- CARBAMIC ACID TERT- BUTYL ESTER]",,> 100 µM,19 µM,,> 100 µM,66 µM,,,,,14 µM,,,,,,,> 100 µM
"CC(C)C[C@H](NC(=O)[C@H](C)N)C(=O)Nc1ccn([C@@H]2CO[C@H](CO)O2)c(=O)n1.O=C(O)C(F)(F)F.O=C(O)C(F)(F)F [Compound 265, 2-(2-AMINO- PROPIONYLAMINO)-4- METHYL-PENTANOIC ACID [1-(2-HYDROXYMETHYL- [1,3]DIOXOLAN-4-YL)-2- OXO-1,2-DIHYDRO- PYRIMIDIN-4-YL]-AMIDE, BIS TRIFLUOROACETIC ACID SALT]",>3,> 100 µM,30 µM,77 µM,> 100 µM,> 100 µM,,,,,,,,,,,,
"CC(C)C[C@H](NC(=O)OCc1ccccc1)C(=O)N[C@@H](C)C(=O)N[C@@H](CC(C)C)C(=O)Nc1ccn([C@@H]2CO[C@H](CO)O2)c(=O)n1 [Compound 267, [1-(1-{1-[1-(2- HYDROXYMETHYL- [1,3]DIOXOLAN-4-YL)-2- OXO-1,2-DIHYDRO- PYRIMIDIN-4- YLCARBAMOYL]-3-METHYL- BUTYLCARBAMOYL}- ETHYLCARBAMOYL)-3- METHYL-BUTYL]-CARBAMIC ACID BENZYL ESTER]",>3,> 10 µM,2.9 µM,34 µM,> 10 µM,93 µM,,,,,,,,,,,,
